Values quoted from earlier work as cited in patent publication US9913866B2, “Selective cell targeting using adenovirus and chemical dimers” (priority 2012, dated 2018).

Experiments:
FKBP and wt FRB domain = FKBP and wt FRB domain (Homo sapiens, UniProt P62942)
[1] = target: FKBP and a mutant FRB domain (mTOR mutation T2098L) (Homo sapiens, UniProt P42345+P62942, T2098L)
Sequence of FKBP and a mutant FRB domain (mTOR mutation T2098L) (P42345 2012-2144 T2098L limits assumed): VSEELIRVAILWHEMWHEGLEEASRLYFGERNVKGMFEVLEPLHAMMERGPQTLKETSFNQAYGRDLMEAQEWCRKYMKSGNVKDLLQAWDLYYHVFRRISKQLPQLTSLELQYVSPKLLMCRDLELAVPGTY
Sequence of FKBP and a mutant FRB domain (mTOR mutation T2098L) (P62942 2-108 limits assumed): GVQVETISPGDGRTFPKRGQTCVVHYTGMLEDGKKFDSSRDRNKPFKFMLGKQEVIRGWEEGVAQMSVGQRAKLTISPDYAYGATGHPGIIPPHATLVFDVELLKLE

Sequence of FKBP and wt FRB domain (P62942 2-108 limits assumed): as above

Question: With `CO[C@H]1[C@@H](O)[C@H](C)C[C@H](C)/C=C/C=C/C=C(\C)[C@@H](c2c[nH]c3c(C)cccc23)C[C@@H]2CC[C@@H](C)[C@@](O)(O2)C(=O)C(=O)N2CCCC[C@H]2C(=O)O[C@H]([C@H](C)C[C@@H]2CC[C@@H](O)[C@H](OC)C2)C[C@H](O)[C@H](C)/C=C(\C)[C@H]1O` [AP21967] as the compound, how does the heterodimer formation (FKBP and wt FRB domain) read?
Answer: not with the wt FRB domain

Question: What about the heterodimer formation [1] of the same compound?
Answer: able to form stable heterodimers
